As a reminder, the IC50 is the concentration that gives 50% inhibition.

Structures can show the parent of a compound that is named as a salt. Where only a bound is given, the exact number is not on record here.

The first assay concerns the target T1, human C3a receptor (C3aR) (Homo sapiens, UniProt Q16581).
T1 construct: expressed in transfected cells
T1 sequence (Q16581 1-482): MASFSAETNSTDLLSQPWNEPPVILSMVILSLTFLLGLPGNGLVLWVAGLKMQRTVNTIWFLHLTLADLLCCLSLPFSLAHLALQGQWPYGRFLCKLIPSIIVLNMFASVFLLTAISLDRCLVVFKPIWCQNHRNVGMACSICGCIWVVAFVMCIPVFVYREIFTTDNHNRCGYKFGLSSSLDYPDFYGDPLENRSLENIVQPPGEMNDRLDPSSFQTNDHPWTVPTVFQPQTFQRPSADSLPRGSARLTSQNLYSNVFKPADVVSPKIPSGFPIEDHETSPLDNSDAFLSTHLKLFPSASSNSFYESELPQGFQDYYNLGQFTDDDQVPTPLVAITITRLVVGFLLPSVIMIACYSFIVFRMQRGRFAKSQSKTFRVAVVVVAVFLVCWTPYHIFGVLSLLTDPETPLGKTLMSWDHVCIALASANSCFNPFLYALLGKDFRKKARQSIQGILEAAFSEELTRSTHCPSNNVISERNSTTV
In words: Inhibition of human [125I]-C3a binding to human C3a receptor (SPA, membranes of HEK293 cells expressing recombinant C3aR). Particulars: 0.1 nM [125I]-C3a, 3 hours at room temperature; Table 2. The protocol: Inhibition of human [^125I]-C3a binding to human C3a receptor
Binding of human [^125I]-C3a to human C3a receptor (C3aR) was done using cell membranes from HEK293 cells stably expressing recombinant C3aR, in a homogeneous scintillation proximity assay (SPA). The C3aR cell membranes were pre-coupled over-night at 4° C. to WGA-PVT SPA beads (Amersham) at a ratio of 10 μg cell membrane to 0.5 mg beads/assay. Assay was performed in 96-well microtiter Optiplates (Packard) by mixing coupled beads and 0.1 nM [^125I]-C3a (2200 Ci/mmol, Perkin Elmer Life Sciences), in a total volume of […] binding buffer (20 mM HEPES, pH 7.4, 125 mM NaCl, 5 mM KCl, 1 mM CaCl2, 1 mM MgCl2, 0.25% BSA, 0.2% CHAPS). Test compounds were diluted in DMSO and were tested for their inhibitory potential in the assay (final concentration≦1% DMSO). Incubation was done for 3 hours at room temperature followed by reading in a TopCount scintillation microplate reader. Non-specific binding was determined by adding 1 μM unlabeled C3a (Calbiochem) to the assay mixture. Calculation of the IC50 was done as above using a nonlinear least square fitting program, with Graphpad Prism.
In the case of `N=C(N)NCCC[C@H](NC(=O)c1cccn(C(c2ccc(C(F)(F)F)cc2)c2ccc(C(F)(F)F)cc2)c1=O)C(=O)O` [Compound 49, (2S)-2-{[(1-{bis[4-(trifluoromethyl)phenyl]methyl}-2-oxo-1,2-dihydropyridin-3-yl)carbonyl]amino}-5-carbamimidamidopentanoic acid•TFA], the IC50 fell in the range of 50 to 500 nM.
Consider `CC(c1ccccc1)n1cccc(C(=O)N[C@@H](CCCNC(=N)N)C(=O)O)c1=O` (stereo partly drawn) [Compound 50, (2S)-5-carbamimidamido-2-({[2-oxo-1-(1-phenylethyl)-1,2-dihydropyridin-3-yl]carbonyl}amino)pentanoic acid•TFA], for which the IC50 is less than 50 nM.

Staying with this assay, now noted: 0.1 nM [125I]-C3a, 3 hours at room temperature; Table 3.
`N=C(N)NCCC[C@H](NC(=O)c1ccc(Cc2ccccc2)cc1)C(=O)O` [Compound 51, (2S)-2-[(4-benzylbenzoyl)amino]-5-carbamimidamidopentanoic acid•TFA]: the IC50 was in the range of 50 to 500 nM.
As to `N=C(N)NCCC[C@H](NC(=O)c1cccc(Cc2ccccc2)c1)C(=O)O` [Compound 52, (2S)-2-[(3-benzylbenzoyl)amino]-5-carbamimidamidopentanoic acid•TFA], the IC50 was in the range of 50 to 500 nM.
As for `N=C(N)NCCC[C@H](NC(=O)c1ccn(Cc2ccccc2)c(=O)c1)C(=O)O` [Compound 53, (2S)-2-{[(1-benzyl-2-oxo-1,2-dihydropyridin-4-yl)carbonyl]amino}-5-carbamimidamidopentanoic acid•TFA], the IC50 lay in the range of 50 to 500 nM.
As to `N=C(N)NCCC[C@H](NC(=O)c1ccc(=O)n(Cc2ccccc2)c1)C(=O)O` [Compound 54, (2S)-2-{[(1-benzyl-6-oxo-1,6-dihydropyridin-3-yl)carbonyl]amino}-5-carbamimidamidopentanoic acid•TFA], the IC50 was in the range of 50 to 500 nM.
In the case of `N=C(N)NCCC[C@H](NC(=O)c1cccc(=O)n1Cc1ccccc1)C(=O)O` [Compound 55, (2S)-2-{[(1-benzyl-6-oxo-1,6-dihydropyridin-2-yl)carbonyl]amino}-5-carbamimidamidopentanoic acid•TFA], the IC50 was 50 to 500 nM.
Consider `N=C(N)NCCC[C@H](NC(=O)c1ccn(C(c2ccccc2)c2ccccc2)c(=O)c1)C(=O)O` [Compound 56, (2S)-5-carbamimidamido-2-({[1-(diphenylmethyl)-2-oxo-1,2-dihydropyridin-4-yl]carbonyl}amino)pentanoic acid•TFA], for which the concentration for half-maximal inhibition (IC50) lay in the range of 50 to 500 nM.
On to `N=C(N)NCCC[C@H](NC(=O)c1ccc(=O)n(C(c2ccccc2)c2ccccc2)c1)C(=O)O` [Compound 57, (2S)-5-carbamimidamido-2-({[1-(diphenylmethyl)-6-oxo-1,6-dihydropyridin-3-yl]carbonyl}amino)pentanoic acid•TFA], for which the IC50 lay in the range of 500 to 20000 nM.
Turning to `CC(C)(C(=O)NC(c1ccccc1)c1ccccc1)C(=O)N[C@@H](CCCNC(=N)N)C(=O)O` [Compound 58, (2S)-5-carbamimidamido-2-({3-[(diphenylmethyl)amino]-2,2-dimethyl-3-oxopropanoyl}amino)pentanoic acid•TFA], the half-maximal inhibitory concentration (IC50) is less than 50 nM.

Still in this assay, the particulars now being: 0.1 nM [125I]-C3a, 3 hours at room temperature; Table 4.
In the case of `NCCCC[C@H](NC(=O)c1cccn(Cc2ccccc2)c1=O)C(=O)O` [Compound 60, (2S)-6-amino-2-{[(1-benzyl-2-oxo-1,2-dihydropyridin-3-yl)carbonyl]amino}hexanoic acid•TFA], the IC50 lay in the range of 500 to 20000 nM.
Still for that read-out and setting: then `Cc1ccc(S(=O)(=O)NCCCC[C@H](NC(=O)c2cccn(Cc3ccccc3)c2=O)C(=O)O)cc1` [Compound 61, (2S)-2-{[(1-benzyl-2-oxo-1,2-dihydropyridin-3-yl)carbonyl]amino}-6-{[(4-methylphenyl)sulfonyl]amino} hexanoic acid], with 500 to 20000 nM; and `Cc1ccc(S(=O)(=O)NCCCC[C@H](NC(=O)c2cccn(C(c3ccccc3)c3ccccc3)c2=O)C(=O)O)cc1` [Compound 62, (2S)-2-({[1-(diphenylmethyl)-2-oxo-1,2-dihydropyridin-3-yl]carbonyl}amino)-6-{[(4-methylphenyl)sulfonyl]amino}hexanoic acid], with 50 to 500 nM.
Take `N=C(N)NCCCC[C@H](NC(=O)c1cccn(Cc2ccccc2)c1=O)C(=O)O` [Compound 63, (2S)-2-{[(1-benzyl-2-oxo-1,2-dihydropyridin-3-yl)carbonyl]amino}-6-carbamimidamidohexanoic acid•TFA]: the IC50 fell in the range of 500 to 20000 nM.
On to `NC(=O)CC[C@H](NC(=O)c1cccn(C(c2ccccc2)c2ccccc2)c1=O)C(=O)O` [Compound 64, (2S)-5-amino-2-({[1-(diphenylmethyl)-2-oxo-1,2-dihydropyridin-3-yl]carbonyl}amino)-5-oxopentanoic acid], for which the IC50 lay within 500 to 20000 nM.
As for `N=C(N)NCC[C@H](NC(=O)c1cccn(C(c2ccccc2)c2ccccc2)c1=O)C(=O)O` [Compound 65, (2S)-4-carbamimidamido-2-({[1-(diphenylmethyl)-2-oxo-1,2-dihydropyridin-3-yl]carbonyl}amino)butanoic acid•TFA], the IC50 lay in the range of 50 to 500 nM.
With `CCOC(=O)N=C(NC)NCC[C@H](NC(=O)c1cccn(C(c2ccccc2)c2ccccc2)c1=O)C(=O)O` [Compound 66, (2S)-2-({[1-(diphenylmethyl)-2-oxo-1,2-dihydropyridin-3-yl]carbonyl}amino)-4-{[[(ethoxycarbonyl)amino](methylamino)methylene]amino}butanoic acid], the IC50 lay within 500 to 20000 nM.
With `Cc1ccc(S(=O)(=O)NCCC[C@H](NC(=O)c2cccn(Cc3ccccc3)c2=O)C(=O)O)cc1` [Compound 67, (2S)-2-{[(1-benzyl-2-oxo-1,2-dihydropyridin-3-yl)carbonyl]amino}-5-{[(4-methylphenyl)sulfonyl]amino}pentanoic acid], the IC50 lay within 500 to 20000 nM.
Consider `Cc1ccc(S(=O)(=O)NCCC[C@H](NC(=O)c2cccn(C(c3ccccc3)c3ccccc3)c2=O)C(=O)O)cc1` [Compound 68, (2S)-2-({[1-(diphenylmethyl)-2-oxo-1,2-dihydropyridin-3-yl]carbonyl}amino)-5-{[(4-methylphenyl)sulfonyl]amino}pentanoic acid], for which the IC50 lay in the range of 500 to 20000 nM.
Consider `CS(=O)(=O)NCCC[C@H](NC(=O)c1cccn(C(c2ccccc2)c2ccccc2)c1=O)C(=O)O` [Compound 69, (S)-2-(1-benzhydryl-2-oxo-1,2-dihydropyridine-3-carboxamido)-5-(methylsulfonamido)pentanoic acid], for which the IC50 was in the range of 50 to 500 nM.
For the compound `O=C(N[C@@H](CCCNC1=NCCN1)C(=O)O)c1cccn(Cc2ccccc2)c1=O` [Compound 70, (2S)-2-{[(1-benzyl-2-oxo-1,2-dihydropyridin-3-yl)carbonyl]amino}-5-(4,5-dihydro-1H-imidazol-2-ylamino)pentanoic acid•TFA], the 50% inhibitory concentration (IC50) lay in the range of 500 to 20000 nM.
Turning to `O=C(N[C@@H](CCCNC1=NCCN1)C(=O)O)c1cccn(C(c2ccccc2)c2ccccc2)c1=O` [Compound 71, (2S)-5-(4,5-dihydro-1H-imidazol-2-ylamino)-2-({[1-(diphenylmethyl)-2-oxo-1,2-dihydropyridin-3-yl]carbonyl}amino)pentanoic acid•TFA], the IC50 is less than 50 nM.
`N=C(N)Nc1cccc([C@H](NC(=O)c2cccn(Cc3ccccc3)c2=O)C(=O)O)c1` [Compound 72, (2S)-{[(1-benzyl-2-oxo-1,2-dihydropyridin-3-yl)carbonyl]amino}(3-carbamimidamidophenyl)acetic acid•TFA]: the IC50 is 50 to 500 nM.
The same measure, in the same setting: then `N=C(NCCC[C@H](NC(=O)c1cccn(Cc2ccccc2)c1=O)C(=O)O)N[N+](=O)[O-]` [Compound 73, (2S)-2-{[(1-benzyl-2-oxo-1,2-dihydropyridin-3-yl)carbonyl]amino}-5-(nitrocarbamimidamido)pentanoic acid], with 500 to 20000 nM; and `N=C(NCCC[C@H](NC(=O)c1cccn(C(c2ccccc2)c2ccccc2)c1=O)C(=O)O)N[N+](=O)[O-]` [Compound 74, (2S)-2-({[1-(diphenylmethyl)-2-oxo-1,2-dihydropyridin-3-yl]carbonyl}amino)-5-(nitrocarbamimidamido)pentanoic acid], with 50 to 500 nM; and `COC(=O)[C@H](CCCNC(=N)N[N+](=O)[O-])NC(=O)c1cccn(C(c2ccccc2)c2ccccc2)c1=O` [Compound 75, methyl (2S)-2-({[1-(diphenylmethyl)-2-oxo-1,2-dihydropyridin-3-yl]carbonyl}amino)-5-(nitrocarbamimidamido)pentanoate], with 500 to 20000 nM.
On to `Cc1ccc(S(=O)(=O)NC(=N)NCCC[C@H](NC(=O)c2cccn(Cc3ccccc3)c2=O)C(=O)O)cc1` [Compound 76, (2S)-2-{[(1-benzyl-2-oxo-1,2-dihydropyridin-3-yl)carbonyl]amino}-5-{[(4-methylphenyl)sulfonyl]carbamimidamido} pentanoic acid], for which the half-inhibitory concentration (IC50) lay within 500 to 20000 nM.

(Values after patent publication US20080188528A1, “Modulators of C3a receptor and methods of use thereof” (priority 2006, published 2008).)
